Data on 56 molecules can be found in US20190330167A1, “ACTIVATORS OF HIV LATENCY” (priority 2016, published 2019).

One experiment concerns HIV-1 long terminal repeat (LTR)-driven luciferase reporter gene in FlipIn.FM HEK293 cells. Put plainly: cells. It is filed as cell-based. The conditions noted are these: HIV-LTR driven latent reporter; 11-point, 2-fold dilution series, highest concentration 40 μM; read-out: Latent reporter Av EC50. The procedure: FIG. 44. […] The FlipIn.FM model of HIV-1 latency was treated with JQ1 (+) and DP#14 (Compound 7) alone at 10 μM and in combination, and the HIV-1 gene expression measured 48 hrs post treatment. Error bars represent standard deviation of n=3 experiments. OPTI represents media alone, without DP#14.
FIG. 46. […] The FlipIn.FM model of HIV-1 latency was treated with PFI-1 and DP#14 alone at 10 μM and in combination, and the HIV-1 gene expression measured 48 hrs post treatment. Error bars represent standard deviation of n=3 experiments. OPTI represents media alone, without DP#14.
Explicitly, HEK293 derived FlipIn-FM and FlipIn-RV dual reporter cells each include a single stable HIV-1 long terminal repeat (LTR)-driven luciferase reporter genes, with a second complimentary non-HIV (off-target) luciferase reporter. These cell lines model post integration latency and read-through transcription by expressing a low level of HIV-1 Tat protein via a native Internal Ribosome Entry Site (IRES) found within Tat, from a chimeric cellular-tat gene cassette. FlipIn-FM and FlipIn-RV clones were chosen for low basal levels of LTR activity and high responsiveness to Tat as well as many Latency Reversing Agents (LRAs).
The dual reporter cell lines contain three stably integrated constructs that together allow for detection of novel LRAs, capable of potent and specific HIV reactivation. The FlipIn.FM line contains a proviral LTR-driven nef/CBR reporter fusion gene, allowing for detection of viral gene expression. A second CMV-driven CBG luciferase reporter allows for detection of off target drug effects, including non-specific activation and drug toxicity. The third construct contains the first coding exon of HIV-1 tat, within human Growth Hormone (hGH) as a chimeric gene, expressing HIV-1 Tat protein from an IRES mechanism that underlies the tat exon. This construct models read-through transcription and the low level of Tat protein expression that occurs during post integration latency. The counter screening reverse cell line, FlipIn.RV, contains the same three components with the Click Beetle Luciferase genes in the opposite orientation (LTR-CBG and CMV-CBR) for counter screening.
Compounds were evaluated in an 11-point titration using normal CMV-CBG/LTR-CBR reporter cell line and an 11 point reverse CMV-CBR/LTR-CBG reporter cell line.
The FlipIn cell lines were therefore designed with a dual purpose, to detect novel compounds that reactivate HIV-1 and to also screen out compounds that behaved in a largely non-specific manner. To achieve the latter, the cell lines contain an “off target” reporter gene construct, driven by the unrelated CMV-IE promoter, that allows for the detection of drug mediated off target effects including global gene activation as well as possible toxicity.
The HIV-LTR driven latent reporter gene identifies the HIV-specific activation, and the term “global reporter” is interchangeable with “off target reporter” and refers to the unrelated CMV-IE promoter driven reporter gene, which is used as a surrogate for global gene activation. […] The highest concentration tested here was 40 μM.
For the molecule `Cc1cnc(NC(=O)CCCOc2ccc(Cl)c(C)c2)s1` [Compound 1], the half-maximal effective concentration (EC50) – broadly, the concentration at which the effect is half-maximal – is 4.88 µM.

Still in this experiment, the particulars now being: Human immunodeficiency virus 1, HEK293, HIV-LTR driven latent reporter; 11-point, 2-fold dilution series, highest concentration 40 μM; read-out: Latent reporter Av EC50.
For the molecule `Cc1cnc(NC(=O)CCCCc2ccccc2)s1` [Compound 4], the EC50 stood at 9.26 µM.
As for `N#Cc1cnc(NC(=O)CCCOc2ccccc2)s1` [Compound 5], the concentration giving a half-maximal response (EC50) amounted to 3.48 µM.
Still for that read-out and setting: next, `CCc1cnc(NC(=O)CCCOc2ccccc2)s1` [Compound 6]: 1.09 µM; `O=C(CCCOc1ccccc1)Nc1ncc(Cl)s1` [Compound 8]: 1.99 µM; `Cc1cnc(NC(=O)CCCOc2ccc(Cl)c(Cl)c2)s1` [Compound 12]: 3.22 µM.
For the molecule `Cc1cnc(NC(=O)CCCOc2ccc(Br)c(Cl)c2)s1` [Compound 14], the EC50 is 3.09 µM.
On the same count and under the same terms, as for `O=C(CCCOc1ccc(Br)c(Cl)c1)Nc1ncc(Br)s1` [Compound 15], the figure is 2.56 µM.
Same read-out and setting: next, `O=C(CCCOc1ccc(Cl)c(Cl)c1)Nc1ncc(Br)s1` [Compound 16]: 1.23 µM; `Cc1cc(OCCCC(=O)Nc2ncc(Br)s2)ccc1Cl` [Compound 17]: 2.83 µM; `O=C(CCCOc1ccc(Br)c(Cl)c1)Nc1ncc(Cl)s1` [Compound 18]: 2.83 µM.
On to `O=C(CCCOc1ccc(Cl)c(Cl)c1)Nc1ncc(Cl)s1` [Compound 19], for which the EC50 stood at 1.48 µM.
`Cc1cc(OCCCC(=O)Nc2ncc(Cl)s2)ccc1Cl` [Compound 20]: the EC50 came out at 1.85 µM.
Same read-out and setting: next, `N#Cc1cnc(NC(=O)CCCOc2ccc(Br)c(Cl)c2)s1` [Compound 21]: 2.12 µM; `CCc1cnc(NC(=O)CCCOc2ccc(Br)c(Cl)c2)s1` [Compound 22]: 2.01 µM; `O=C(CCCOc1ccccc1)Nc1ccc(Br)cn1` [Compound 29]: 7.6 µM.
On the same count and under the same terms, as for `O=C(CCCOc1ccccc1)Nc1ccc(C(F)(F)F)cn1` [Compound 30], the figure is 9.74 µM; as for `Cc1cnc(NC(=O)CCCOc2ccc(Cl)c(C)c2)s1` [Compound 36], 4.2 µM; as for `Cc1cnc(NC(=O)CCCOc2ccc(Cl)c(C(F)(F)F)c2)s1` [Compound 38], 5.07 µM.
The same measure, in the same setting: as for `O=C(CCCOc1ccccc1)Nc1ccc(Cl)cn1` [Compound 40], the figure is 6.86 µM; as for `COc1ccccc1OCCCC(=O)Nc1ncc(C)s1` [Compound 42], 1.42 µM.
Regarding `Cc1cnc(NC(=O)CCCOc2cccc(O)c2)s1` [Compound 43], the EC50 turned out to be 12.5 µM.
Still for that read-out and setting: as for `COc1cccc(OCCCC(=O)Nc2ncc(C)s2)c1` [Compound 44], the figure is 5.3 µM.
The same measure, in the same setting: as for `Cc1cnc(NC(=O)CCCOc2cccc([N+](=O)[O-])c2)s1` [Compound 45], the figure is 5.29 µM; as for `Cc1cnc(NC(=O)CCCOc2cccc(Cl)c2)s1` [Compound 46], 5.23 µM; as for `Cc1cnc(NC(=O)CCCOc2cccc(C(F)(F)F)c2)s1` [Compound 47], 6.55 µM.
Same read-out and setting: as for `Cc1cnc(NC(=O)CCCOc2cccc(CO)c2)s1` [Compound 48], the figure is 4.13 µM.
For `Cc1cnc(NC(=O)CCCOc2cccc(C=O)c2)s1` [Compound 49], the EC50 came out at 2.64 µM.
On to `O=C(CCCOc1ccccc1)Nc1ncc(C(F)(F)F)s1` [Compound 51], for which the EC50 came to 2.37 µM.
On the same count and under the same terms, as for `CC(C)c1cnc(NC(=O)CCCOc2ccccc2)s1` [Compound 52], the figure is 3.8 µM; as for `Cc1cc(OCCCC(=O)Nc2ccc(Cl)cn2)ccc1Cl` [Compound 54], 19.4 µM.
The same measure, in the same setting: next, `COc1ccc(NC(=O)CCCOc2ccc(Cl)c(C)c2)nc1` [Compound 55]: 17.9 µM; `Cc1cnc(NC(=O)CCCN(C)c2ccccc2)s1` [Compound 56]: 14.8 µM; `Cc1cnc(NC(=O)CCCNc2ccc(Cl)c(C)c2)s1` [Compound 57]: 1.7 µM.
As for `Cc1cnc(NC(=O)CCCNc2ccc(Cl)c(C(F)(F)F)c2)s1` [Compound 58], the EC50 came out at 2 µM.
Consider `Cc1cnc(NC(=O)CCCN(C)c2ccc(Cl)c(C)c2)s1` [Compound 59], for which the EC50 was 1.11 µM.
Consider `Cc1ccc(OCCCC(=O)Nc2ncc(Cl)s2)cc1Cl` [Compound 60], for which the EC50 is 3.56 µM.
Same read-out and setting: next, `Cc1cc(OCCCC(=O)Cc2ncc(C(C)C)s2)ccc1Cl` [Compound 61]: 4.29 µM; `Cc1cc(OCCCC(=O)Nc2ncc(C(F)(F)F)s2)ccc1Cl` [Compound 62]: 4.74 µM; `Cc1cnc(NC(=O)N2CCN(c3ccc(C)c(Cl)c3)CC2)s1` [Compound 63]: 0.45 µM.
Regarding `Cc1cnc(NC(=O)N2CCN(c3ccc(Cl)c(Cl)c3)CC2)s1` [Compound 66], the concentration giving a half-maximal response (EC50) was determined as 0.58 µM.
For the molecule `O=C(Nc1ncc(Cl)s1)N1CCN(c2ccc(Cl)c(Cl)c2)CC1` [Compound 67], the EC50 is 0.27 µM.
As to `N#Cc1cnc(NC(=O)N2CCN(c3ccc(Cl)c(Cl)c3)CC2)s1` [Compound 68], the EC50 worked out at 0.52 µM.
The same measure, in the same setting: as for `Cc1cnc(NC(=O)N2CCN(c3ccc(Cl)c(C)c3)CC2)s1` [Compound 69], the figure is 0.34 µM.
On the same count and under the same terms, as for `Cc1cc(N2CCN(C(=O)Nc3ncc(Cl)s3)CC2)ccc1Cl` [Compound 70], the figure is 0.21 µM.
On to `Cc1cc(N2CCN(C(=O)Nc3ncc(C#N)s3)CC2)ccc1Cl` [Compound 71], for which the EC50 is 0.88 µM.
On the same count and under the same terms, as for `Cc1cc(N2CCN(C(=O)Nc3ncc(Cl)s3)CC2)ncc1C#N` [Compound 72], the figure is 0.25 µM; as for `Cc1ccc(N2CCCN(C(=O)Nc3ncc(Cl)s3)CC2)cc1Cl` [Compound 74], 5.2 µM.
Still for that read-out and setting: next, `O=C(Nc1ncc(Cl)s1)N1CCCN(c2ccc(Cl)c(Cl)c2)CC1` [Compound 75]: 5.46 µM.
Still for that read-out and setting: as for `Cc1cnc2[nH]c(CCCOc3ccc(C)c(Cl)c3)nc2c1` [Compound 76], the figure is 7.75 µM.
As for `Cc1ccc(OCCCc2nc3cc(Br)cnc3[nH]2)cc1Cl` [Compound 77], the EC50 stood at 3.97 µM.
Take `Cc1ccc(N2CCC(C(=O)Nc3ncc(Cl)s3)CC2)cc1Cl` [Compound 78]: the EC50 was determined as 11.4 µM.
The same measure, in the same setting: next, `Cc1ccc(N2CCC(C(=O)Nc3ncc(C#N)s3)CC2)cc1Cl` [Compound 79]: 3.83 µM.
Turning to `Cc1cnc(NC(=O)N2CCC(Nc3ccc(Cl)c(C)c3)C2)s1` (centres unmarked) [Compound 80], the EC50 stood at 10.1 µM.
On the same count and under the same terms, next, `Cc1cc(NC2CCN(C(=O)Nc3ncc(Cl)s3)C2)ccc1Cl` (centres unmarked) [Compound 81]: 1.5 µM; `Cc1cc(OCCC(=O)Nc2ncc(Cl)s2)ccc1Cl` [Compound 83]: 2.2 µM.
